According to patent publication US11104652B2, “Stereochemically enriched compositions for delivery of nucleic acids” (TRANSLATE BIO, INC., priority 2014, dated 2021):
Where “and” joins values, the source holds several entries; their conditions need not be identical. Equal entries are not always repeated.

Columns and labels:
[1] = system: human ASS1 protein production in wild type mouse liver; experiment: In vivo human ASS1 protein production (ELISA) via hASS1 mRNA-loaded lipid nanoparticles; conditions: Table 1, human ASS1 by ELISA, CD-1 mice, single bolus intravenous injection, 1.0 mg/kg encapsulated ASS1 mRNA, twenty-four hours post-injection
Method: (§1) All studies were performed using male CD-1 mice of approximately 6-8 weeks of age at the beginning of each experiment. Samples were introduced by a single bolus tail-vein injection of an equivalent total dose of 1.0 mg/kg (or otherwise specified) of encapsulated ASS1 mRNA. Mice were sacrificed and perfused with saline at the designated time points.
The liver, spleen, kidney and heart of each mouse was harvested, apportioned into separate parts, and stored in either 10% neutral buffered formalin or snap-frozen and stored at −80° C. for analysis.
Human ASS1 ELISA: Standard ELISA procedures were followed employing mouse anti-ASS1 2D1-2E12 IgG as the capture antibody with rabbit anti-ASS1 #3285 IgG as the secondary (detection) antibody (Shire Human Genetic Therapies). Horseradish peroxidase (HRP)-conjugated goat anti-rabbit IgG was used for activation of the 3,3′,5,5′-tetramethylbenzidine (TMB) substrate solution. The reaction was quenched using 2N H2SO4 after 20 minutes. Detection was monitored via absorption (450 nm) on a Molecular Device SpectraMax instrument. Untreated mouse serum and organs and human ASS1 protein were used as negative and positive controls, respectively.
The production of human ASS1 protein via codon-optimized hASS1 mRNA-loaded lipid nanoparticles, comprising compounds of formula I, was tested in CD-1 mice as a single, bolus intravenous injection, as described above. FIG. 1 depicts the amount of human ASS1 protein detected via ELISA when treating mice human ASS1 mRNA-loaded lipid nanoparticles, with various racemic and chiral compounds of formula I, at 1.0 mg/kg doses. The mice were sacrificed twenty-four hours post-injection and organs, such as livers, were harvested.

CD-1 mice = experiment: Toxicity studies: expression levels of ALT and AST after ASS1 mRNA-loaded lipid nanoparticles; type: in vivo, mouse
Method: as §1
All animals were euthanized by CO2 asphyxiation at designated time points post dose administration (±5%) followed by thoracotomy and terminal cardiac blood collection. Whole blood (maximal obtainable volume) will be collected via cardiac puncture on euthanized animals into serum separator tubes, allowed to clot at room temperature for at least 30 minutes, centrifuged at 22° C.±5° C. at 9300 g for 10 minutes, and the serum will be extracted. For interim blood collections, approximately 40-50 μL of whole blood will be collected via facial vein puncture or tail snip. Samples collected from non treatment animals were used as a baseline ASS1 levels for comparison to study animals.
The chiral compounds of formula I generally yielded lower expression levels of ALT and/or AST, i.e., correlating to lower liver toxicity issues, compared to stereochemically non-enriched, or stereochemically less enriched, compositions of the same lipid.

[2] = Table 1, ASS1 mRNA-loaded lipid nanoparticles with the named cKK-E12 composition as cationic lipid, mice, intravenous
[3] = Table 2, single intravenous dose, 24 hours post, formulation cKK-E12:DOPE:Chol:DMG-PEG2K, several lots per structure, in U/L
[4] = Table 2, single intravenous dose, 24 hours post, formulation cKK-E12:DOPE:Chol:DMG-PEG2K, several lots per structure, listed as S4-RS/SR, in U/L

SMILES	ASS1 (ng/mg Total Protein) ([1]; 1 mg/kg)	ALT (CD-1 mice; [2])	AST (CD-1 mice; [2])	ASS1 (ng/mg Total Protein) [1] [ng/mg Total Protein]	ALT (CD-1 mice; [3])	AST (CD-1 mice; [3])	ALT (CD-1 mice; [4])	AST (CD-1 mice; [4])
CCCCCCCCCC[C@@H](O)CN(CCCCC1NC(=O)C(CCCCN(C[C@H](O)CCCCCCCCCC)C[C@H](O)CCCCCCCCCC)NC1=O)C[C@H](O)CCCCCCCCCC (mixture of isomers) [R4 with Racemic Lysine Core]	823 ± 215 ng/mg Total Protein and 568 ± 248 ng/mg Total Protein	188 ± 22 U/L and 236 ± 163 U/L	265 ± 122 U/L and 237 ± 139 U/L					
CCCCCCCCCCC(O)CN(CCCC[C@@H]1NC(=O)[C@H](CCCCN(CC(O)CCCCCCCCCC)CC(O)CCCCCCCCCC)NC1=O)CC(O)CCCCCCCCCC (mixture of isomers) [Racemic —OH with SS Lysine Core]	117 ± 80 ng/mg Total Protein and 209 ± 169 ng/mg Total Protein	378 ± 58 U/L and 618 ± 503 U/L	622 ± 76 U/L and 638 ± 273 U/L					
CCCCCCCCCC[C@H](O)CN(CCCCC1NC(=O)C(CCCCN(C[C@@H](O)CCCCCCCCCC)C[C@@H](O)CCCCCCCCCC)NC1=O)C[C@@H](O)CCCCCCCCCC (mixture of isomers) [S4 with Racemic Lysine Core]	375 ± 244 ng/mg Total Protein and 674 ± 147 ng/mg Total Protein	170 ± 40 U/L and 155 ± 57 U/L	132 ± 44 U/L and 157 ± 38 U/L					
CCCCCCCCCCC(O)CN(CCCC[C@@H]1NC(=O)[C@H](CCCCN(CC(O)CCCCCCCCCC)CC(O)CCCCCCCCCC)NC1=O)CC(O)CCCCCCCCCC (stereo in doubt) [R4-S,S-cKKE12, (3S,6S)-3,6-bis(4-(bis((S)-2-hydroxydodecyl)amino)butyl)piperazine-2,5-dione]		175 ± 102 U/L	144 ± 35 U/L	449 ± 105	175 ± 102	144 ± 35		
CCCCCCCCCC[C@@H](O)CN(CCCC[C@H]1NC(=O)[C@@H](CCCCN(C[C@H](O)CCCCCCCCCC)C[C@H](O)CCCCCCCCCC)NC1=O)C[C@H](O)CCCCCCCCCC [R4-RR]					136 ± 34	194 ± 80		
CCCCCCCCCC[C@H](O)CN(CCCC[C@H]1NC(=O)[C@@H](CCCCN(C[C@@H](O)CCCCCCCCCC)C[C@@H](O)CCCCCCCCCC)NC1=O)C[C@@H](O)CCCCCCCCCC [S4-RR]					152 ± 9	180 ± 42		
CCCCCCCCCC[C@H](O)CN(CCCC[C@@H]1NC(=O)[C@@H](CCCCN(C[C@@H](O)CCCCCCCCCC)C[C@@H](O)CCCCCCCCCC)NC1=O)C[C@@H](O)CCCCCCCCCC [S4-S,R-cKKE12]		190 ± 75 U/L	193 ± 71 U/L	2303 ± 491			143 ± 29 and 189 ± 47 and 190 ± 75	240 ± 98 and 203 ± 87 and 193 ± 71
CCCCCCCCCC[C@H](O)CN(CCCC[C@@H]1NC(=O)[C@H](CCCCN(C[C@@H](O)CCCCCCCCCC)C[C@@H](O)CCCCCCCCCC)NC1=O)C[C@@H](O)CCCCCCCCCC [S4-S,S-cKKE12, (3S,6S)-3,6-bis(4-(bis((S)-2-hydroxydodecyl)amino)butyl)piperazine-2,5-dione]		226 ± 71 U/L	384 ± 233 U/L	1121 ± 468	226 ± 71	384 ± 233		
